What was measured:
Experiment in all cases: relative viability (nuclei count vs DMSO), 5 days (fraction); higher = more cells survive
NCI-H2228 = test system: NCI-H2228
Method in brief: (§1)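 Cells from lung cancer lines were seeded into 1536-well plates and, one day later, dosed by pin tool. Treatments were either a single drug or a fixed dose of an anchor drug with five library-drug doses (not always all listed) in √10 steps. After 5 days, nuclei were stained in a one-step fixation (final 0.05% Triton X-100, 1% formaldehyde, 1 ug/ml Hoechst) and counted on 4× images, and relative viability is the treated-to-vehicle nuclei ratio, as the median of duplicate plates.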

NCI-H2126 = test system: NCI-H2126
Method in brief: as §1

HCC-366 = test system: HCC-366
Method in brief: as §1

NCI-H1993 = test system: NCI-H1993
Method in brief: as §1

EMC-BAC-2 = test system: EMC-BAC-2
Method in brief: as §1

COR-L23 = test system: COR-L23
Method in brief: as §1

NCI-H1395 = test system: NCI-H1395
Method in brief: as §1

HCC-15 = test system: HCC-15
Method in brief: as §1

LC-2-ad = test system: LC-2-ad
Method in brief: as §1

SK-LU-1 = test system: SK-LU-1
Method in brief: as §1

HOP-62 = test system: HOP-62
Method in brief: as §1

NCI-H2023 = test system: NCI-H2023
Method in brief: as §1

NCI-H2405 = test system: NCI-H2405
Method in brief: as §1

NCI-H1944 = test system: NCI-H1944
Method in brief: as §1

HARA = test system: HARA
Method in brief: as §1

NCI-H358 = test system: NCI-H358
Method in brief: as §1

NCI-H1793 = test system: NCI-H1793
Method in brief: as §1

HCC-78 = test system: HCC-78
Method in brief: as §1

NCI-H838 = test system: NCI-H838
Method in brief: as §1

ChaGo-K-1 = test system: ChaGo-K-1
Method in brief: as §1

ABC-1 = test system: ABC-1
Method in brief: as §1

NCI-H23 = test system: NCI-H23
Method in brief: as §1

COc1nc(C)cnc1NS(=O)(=O)c1cccnc1-c1ccc(-c2nnco2)cc1 [Zibotentan] + N=C(N)NC(=N)NCCc1ccccc1 [Phenformin] (partner 250 µM) gave a relative viability (NCI-H2228; first compound 0.08 µM) of 0.324, a relative viability (NCI-H2228; first compound 0.253 µM) of 0.314 and a relative viability (NCI-H2228; first compound 0.8 µM) of 0.444. For the same compound, the relative viability (NCI-H2228; first compound 2.53 µM) was 0.415, the relative viability (NCI-H2126; first compound 0.08 µM) was 0.534 and the relative viability (NCI-H2126; first compound 0.8 µM) was 0.518. For the same compound, the relative viability (NCI-H2126; first compound 2.53 µM) was 0.575, the relative viability (HCC-366; first compound 0.08 µM) was 0.692 and the relative viability (HCC-366; first compound 0.253 µM) was 0.62. The relative viability (HCC-366; first compound 0.8 µM) was 0.577, the relative viability (HCC-366; first compound 2.53 µM) was 0.603 and the relative viability (NCI-H1993; first compound 0.08 µM) was 0.461. It also gave a relative viability (NCI-H1993; first compound 0.253 µM) of 0.541, a relative viability (NCI-H1993; first compound 0.8 µM) of 0.46 and a relative viability (NCI-H1993; first compound 2.53 µM) of 0.514. For the same compound, the relative viability (EMC-BAC-2; first compound 0.08 µM) was 0.541, the relative viability (EMC-BAC-2; first compound 0.8 µM) was 0.61 and the relative viability (EMC-BAC-2; first compound 2.53 µM) was 0.538. The relative viability (COR-L23; first compound 0.08 µM) was 0.445, the relative viability (COR-L23; first compound 0.253 µM) was 0.376 and the relative viability (COR-L23; first compound 0.8 µM) was 0.506. It also gave a relative viability (COR-L23; first compound 2.53 µM) of 0.416, a relative viability (NCI-H1395; first compound 0.08 µM) of 0.43 and a relative viability (NCI-H1395; first compound 0.253 µM) of 0.45. For the same compound, the relative viability (NCI-H1395; first compound 0.8 µM) was 0.464, the relative viability (NCI-H1395; first compound 2.53 µM) was 0.486 and the relative viability (HCC-15; first compound 0.08 µM) was 0.524. For the same compound, the relative viability (HCC-15; first compound 0.8 µM) was 0.493, the relative viability (HCC-15; first compound 2.53 µM) was 0.451 and the relative viability (LC-2-ad; first compound 0.08 µM) was 0.564. It also gave a relative viability (LC-2-ad; first compound 0.8 µM) of 0.689, a relative viability (LC-2-ad; first compound 2.53 µM) of 0.619 and a relative viability (SK-LU-1; first compound 0.08 µM) of 0.53. It also gave a relative viability (SK-LU-1; first compound 0.253 µM) of 0.463, a relative viability (SK-LU-1; first compound 0.8 µM) of 0.501 and a relative viability (SK-LU-1; first compound 2.53 µM) of 0.503. For the same compound, the relative viability (HOP-62; first compound 0.08 µM) was 0.746, the relative viability (HOP-62; first compound 0.253 µM) was 0.664 and the relative viability (HOP-62; first compound 0.8 µM) was 0.747. It also gave a relative viability (HOP-62; first compound 2.53 µM) of 0.715, a relative viability (NCI-H2023; first compound 0.08 µM) of 0.407 and a relative viability (NCI-H2023; first compound 0.253 µM) of 0.321. It also gave a relative viability (NCI-H2023; first compound 0.8 µM) of 0.416, a relative viability (NCI-H2023; first compound 2.53 µM) of 0.451 and a relative viability (NCI-H2405; first compound 0.08 µM) of 0.422. It also gave a relative viability (NCI-H2405; first compound 0.253 µM) of 0.39, a relative viability (NCI-H2405; first compound 0.8 µM) of 0.436 and a relative viability (NCI-H2405; first compound 2.53 µM) of 0.439. For the same compound, the relative viability (NCI-H1944; first compound 0.08 µM) was 0.226, the relative viability (NCI-H1944; first compound 0.253 µM) was 0.181 and the relative viability (NCI-H1944; first compound 0.8 µM) was 0.188. The relative viability (NCI-H1944; first compound 2.53 µM) was 0.202, the relative viability (HARA; first compound 0.08 µM) was 0.462 and the relative viability (HARA; first compound 0.253 µM) was 0.429. For the same compound, the relative viability (HARA; first compound 0.8 µM) was 0.217, the relative viability (HARA; first compound 2.53 µM) was 0.489 and the relative viability (NCI-H358; first compound 0.08 µM) was 0.288. It also gave a relative viability (NCI-H358; first compound 0.253 µM) of 0.134, a relative viability (NCI-H358; first compound 0.8 µM) of 0.328 and a relative viability (NCI-H358; first compound 2.53 µM) of 0.345. It also gave a relative viability (NCI-H1793; first compound 0.08 µM) of 0.404, a relative viability (NCI-H1793; first compound 0.253 µM) of 0.431 and a relative viability (NCI-H1793; first compound 0.8 µM) of 0.31. The relative viability (NCI-H1793; first compound 2.53 µM) was 0.406, the relative viability (HCC-78; first compound 0.08 µM) was 0.778 and the relative viability (HCC-78; first compound 0.253 µM) was 0.598. It also gave a relative viability (HCC-78; first compound 0.8 µM) of 0.581, a relative viability (HCC-78; first compound 2.53 µM) of 0.59 and a relative viability (NCI-H838; first compound 0.08 µM) of 0.586. For the same compound, the relative viability (NCI-H838; first compound 0.253 µM) was 0.586, the relative viability (NCI-H838; first compound 0.8 µM) was 0.55 and the relative viability (NCI-H838; first compound 2.53 µM) was 0.567. The relative viability (ChaGo-K-1; first compound 0.08 µM) was 0.563, the relative viability (ChaGo-K-1; first compound 0.253 µM) was 0.42 and the relative viability (ChaGo-K-1; first compound 0.8 µM) was 0.469. The relative viability (ChaGo-K-1; first compound 2.53 µM) was 0.543, the relative viability (ABC-1; first compound 0.08 µM) was 0.236 and the relative viability (ABC-1; first compound 0.253 µM) was 0.235. For the same compound, the relative viability (ABC-1; first compound 0.8 µM) was 0.252, the relative viability (ABC-1; first compound 2.53 µM) was 0.227 and the relative viability (NCI-H23; first compound 0.08 µM) was 0.85. It also gave a relative viability (NCI-H23; first compound 0.253 µM) of 0.762, a relative viability (NCI-H23; first compound 0.8 µM) of 0.761 and a relative viability (NCI-H23; first compound 2.53 µM) of 0.86.

Reference: the supplement of paper PMC10307832
